# From ChEMBL document CHEMBL1132874, “Synthesis and structure-activity relationship of novel pyridyl ethers for the nicotinic acetylcholine receptor” (Bioorg Med Chem Lett, 2000)
# Target: Neuronal acetylcholine receptor; alpha4/beta2 (Rattus norvegicus, UniProt P09483+P12390)
# Test: Evaluated for binding affinity towards nicotinic acetylcholine receptor alpha4-beta2
# Type: protein-complex assay
# Sequence of Neuronal acetylcholine receptor; alpha4/beta2 (P09483 whole entry): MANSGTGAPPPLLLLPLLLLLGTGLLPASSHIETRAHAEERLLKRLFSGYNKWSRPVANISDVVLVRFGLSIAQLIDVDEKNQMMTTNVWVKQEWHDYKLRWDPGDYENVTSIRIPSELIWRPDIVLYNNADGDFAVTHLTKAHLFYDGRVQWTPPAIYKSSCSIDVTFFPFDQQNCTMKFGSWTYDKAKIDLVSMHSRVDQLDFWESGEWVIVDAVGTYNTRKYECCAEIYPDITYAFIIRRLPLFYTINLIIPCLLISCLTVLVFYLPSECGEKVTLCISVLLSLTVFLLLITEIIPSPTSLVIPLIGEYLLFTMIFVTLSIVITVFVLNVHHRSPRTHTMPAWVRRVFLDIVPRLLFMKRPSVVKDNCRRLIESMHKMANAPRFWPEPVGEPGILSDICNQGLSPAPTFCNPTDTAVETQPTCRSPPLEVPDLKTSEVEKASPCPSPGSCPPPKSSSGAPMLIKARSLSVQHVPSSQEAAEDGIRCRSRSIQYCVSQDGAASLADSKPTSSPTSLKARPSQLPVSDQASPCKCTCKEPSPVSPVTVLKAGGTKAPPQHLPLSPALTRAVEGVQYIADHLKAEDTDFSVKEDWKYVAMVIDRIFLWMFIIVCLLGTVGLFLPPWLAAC
# Sequence of Neuronal acetylcholine receptor; alpha4/beta2 (P12390 whole entry): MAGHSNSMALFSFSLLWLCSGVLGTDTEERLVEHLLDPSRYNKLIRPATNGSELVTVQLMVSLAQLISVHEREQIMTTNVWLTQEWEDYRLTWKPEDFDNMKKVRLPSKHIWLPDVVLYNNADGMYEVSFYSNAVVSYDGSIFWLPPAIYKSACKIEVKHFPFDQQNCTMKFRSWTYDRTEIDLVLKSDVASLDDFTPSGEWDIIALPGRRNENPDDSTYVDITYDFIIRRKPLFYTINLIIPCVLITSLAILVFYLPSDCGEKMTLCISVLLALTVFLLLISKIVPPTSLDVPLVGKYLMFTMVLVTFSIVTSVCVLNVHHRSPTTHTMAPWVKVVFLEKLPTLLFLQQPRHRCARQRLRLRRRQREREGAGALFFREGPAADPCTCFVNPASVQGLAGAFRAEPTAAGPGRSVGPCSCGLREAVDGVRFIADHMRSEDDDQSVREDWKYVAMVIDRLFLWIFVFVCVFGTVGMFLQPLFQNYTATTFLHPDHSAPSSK
row,Structure (SMILES),IC50
1,c1cc(-c2cncc(O[C@@H]3CCNC3)c2)ccn1,0.571 µM
2,Clc1ncc(O[C@@H]2CCNC2)cc1-c1ccccc1,0.075 µM
3,Clc1ncc(O[C@@H]2CCNC2)cc1-c1ccncc1,0.065 µM
4,C=Cc1cncc(O[C@@H]2CCNC2)c1,0.883 µM
5,C#Cc1cncc(O[C@@H]2CCNC2)c1,0.062 µM
6,C#Cc1cc(O[C@@H]2CCNC2)cnc1Cl,0.046 µM
7,c1cncc(OC2CNC2)c1,> 10 µM
8,CC(C)N1CCC(Oc2cccnc2)C1 (stereo not given),> 10 µM
9,Cc1cc(O[C@@H]2CCNC2)cnc1Cl,0.064 µM
10,C=Cc1cc(O[C@@H]2CCNC2)cnc1Cl,0.14 µM
11,CCN1CCC(Oc2cccnc2)C1 (stereo not given),> 10 µM
12,Clc1cccc(-c2cncc(O[C@@H]3CCNC3)c2)c1,0.94 µM
13,Clc1cccc(-c2cc(O[C@@H]3CCNC3)cnc2Cl)c1,0.103 µM
14,N#Cc1ccc(-c2cncc(O[C@@H]3CCNC3)c2)cc1,0.544 µM
15,c1ccc(-c2cncc(O[C@@H]3CCNC3)c2)cc1,1.82 µM
